Data taken from ChEMBL document CHEMBL1138551, “Antimicrobial studies of some novel quinazolinones fused with [1,2,4]-triazole, [1,2,4]-triazine and [1,2,4,5]-tetrazine rings” (2009).
Values after ≈ are worked out from the molar mass of the structure shown.

What was measured:
Type in all cases: functional
[1] = test system: Aspergillus flavus; test: Antifungal activity against Aspergillus flavus after 26 hrs by serial plate dilution method
[2] = test system: Aspergillus niger; test: Antifungal activity against Aspergillus niger after 26 hrs by serial plate dilution method
[3] = test system: Escherichia coli; test: Antibacterial activity against Escherichia coli after 24 hrs by disk diffusion method
[4] = test system: Pseudomonas aeruginosa; test: Antibacterial activity against Pseudomonas aeruginosa after 24 hrs by disk diffusion method
[5] = test system: Streptococcus pneumoniae; test: Antibacterial activity against Streptococcus pneumoniae after 24 hrs by disk diffusion method
[6] = test system: Bacillus subtilis; test: Antibacterial activity against Bacillus subtilis after 24 hrs by disk diffusion method
[7] = test system: Candida albicans; test: Antifungal activity against Candida albicans after 26 hrs by serial plate dilution method
[8] = test system: Aspergillus fumigatus; test: Antifungal activity against Aspergillus fumigatus after 26 hrs by serial plate dilution method

COc1ccc(-n2c(=O)c3ccccc3n3c(-c4ccccc4C)nnc23)cc1
MIC [1]: 25 µg/mL (≈ 65.4 µM) | MIC [2]: 6.25 µg/mL (≈ 16.3 µM) | MIC [3]: 6.25 µg/mL (≈ 16.3 µM) | MIC [4]: 3.12 µg/mL (≈ 8.16 µM) | MIC [5]: 25 µg/mL (≈ 65.4 µM) | MIC [6]: 12.5 µg/mL (≈ 32.7 µM) | MIC [7]: 12.5 µg/mL (≈ 32.7 µM) | MIC [8]: 6.25 µg/mL (≈ 16.3 µM)

COc1ccc(-n2c(=O)c3ccccc3n3c(-c4ccccc4)nnc23)cc1
MIC [1]: 25 µg/mL (≈ 67.9 µM) | MIC [2]: 3.12 µg/mL (≈ 8.47 µM) | MIC [3]: 12.5 µg/mL (≈ 33.9 µM) | MIC [4]: 6.25 µg/mL (≈ 17 µM) | MIC [5]: 6.25 µg/mL (≈ 17 µM) | MIC [6]: 12.5 µg/mL (≈ 33.9 µM) | MIC [7]: 6.25 µg/mL (≈ 17 µM) | MIC [8]: 12.5 µg/mL (≈ 33.9 µM)

Cc1ccc(-n2c(=O)c3ccccc3n3c(-c4ccccc4)nnc23)cc1
MIC [1]: 50 µg/mL (≈ 142 µM) | MIC [2]: 50 µg/mL (≈ 142 µM) | MIC [3]: 25 µg/mL (≈ 70.9 µM) | MIC [4]: 25 µg/mL (≈ 70.9 µM) | MIC [5]: 50 µg/mL (≈ 142 µM) | MIC [6]: 50 µg/mL (≈ 142 µM) | MIC [7]: > 50 µg/mL | MIC [8]: 25 µg/mL (≈ 70.9 µM)

O=c1c2ccccc2n2c(-c3ccccc3)nnc2n1-c1ccc(Cl)cc1
MIC [1]: 12.5 µg/mL (≈ 33.5 µM) | MIC [2]: 25 µg/mL (≈ 67.1 µM) | MIC [3]: 6.25 µg/mL (≈ 16.8 µM) | MIC [4]: 12.5 µg/mL (≈ 33.5 µM) | MIC [5]: 12.5 µg/mL (≈ 33.5 µM) | MIC [6]: 6.25 µg/mL (≈ 16.8 µM) | MIC [7]: 12.5 µg/mL (≈ 33.5 µM) | MIC [8]: 6.25 µg/mL (≈ 16.8 µM)

O=c1c2ccccc2n2c(-c3ccccc3)nnc2n1-c1ccccc1
MIC [1]: > 50 µg/mL | MIC [2]: 25 µg/mL (≈ 73.9 µM) | MIC [3]: 50 µg/mL (≈ 148 µM) | MIC [4]: > 50 µg/mL | MIC [5]: 50 µg/mL (≈ 148 µM) | MIC [6]: 25 µg/mL (≈ 73.9 µM) | MIC [7]: 25 µg/mL (≈ 73.9 µM) | MIC [8]: > 50 µg/mL

Cc1ccc(N2C(=O)c3ccccc3N3C2=NNC(=S)N3c2ccccc2)cc1
MIC [1]: 12.5 µg/mL (≈ 31.3 µM) | MIC [2]: 25 µg/mL (≈ 62.6 µM) | MIC [3]: 25 µg/mL (≈ 62.6 µM) | MIC [4]: 25 µg/mL (≈ 62.6 µM) | MIC [5]: > 50 µg/mL | MIC [6]: 25 µg/mL (≈ 62.6 µM) | MIC [7]: 25 µg/mL (≈ 62.6 µM) | MIC [8]: 12.5 µg/mL (≈ 31.3 µM)

Cc1ccc(-n2c(=O)c3ccccc3n3c4nc5ccccc5c-4nnc23)cc1
MIC [1]: 25 µg/mL (≈ 66.2 µM) | MIC [2]: 50 µg/mL (≈ 132 µM) | MIC [3]: 25 µg/mL (≈ 66.2 µM) | MIC [4]: > 50 µg/mL | MIC [5]: 25 µg/mL (≈ 66.2 µM) | MIC [6]: 25 µg/mL (≈ 66.2 µM) | MIC [7]: 25 µg/mL (≈ 66.2 µM) | MIC [8]: 12.5 µg/mL (≈ 33.1 µM)

COc1ccc(-n2c(=O)c3ccccc3n3c4nc5ccccc5c-4nnc23)cc1
MIC [1]: 3.12 µg/mL (≈ 7.93 µM) | MIC [2]: 12.5 µg/mL (≈ 31.8 µM) | MIC [3]: 12.5 µg/mL (≈ 31.8 µM) | MIC [4]: 12.5 µg/mL (≈ 31.8 µM) | MIC [5]: 12.5 µg/mL (≈ 31.8 µM) | MIC [6]: 6.25 µg/mL (≈ 15.9 µM) | MIC [7]: 6.25 µg/mL (≈ 15.9 µM) | MIC [8]: 6.25 µg/mL (≈ 15.9 µM)

O=C1c2ccccc2N2C(=NNC(=S)N2c2ccccc2)N1c1ccccc1
MIC [1]: > 50 µg/mL | MIC [2]: 25 µg/mL (≈ 64.9 µM) | MIC [3]: > 50 µg/mL | MIC [4]: 50 µg/mL (≈ 130 µM) | MIC [5]: 25 µg/mL (≈ 64.9 µM) | MIC [6]: > 50 µg/mL | MIC [7]: 25 µg/mL (≈ 64.9 µM) | MIC [8]: > 50 µg/mL

COc1ccc(N2C(=S)NN=C3N(c4ccccc4)C(=O)c4ccccc4N32)cc1
MIC [1]: 25 µg/mL (≈ 60.2 µM) | MIC [2]: 3.12 µg/mL (≈ 7.51 µM) | MIC [3]: 6.25 µg/mL (≈ 15 µM) | MIC [4]: 3.12 µg/mL (≈ 7.51 µM) | MIC [5]: 25 µg/mL (≈ 60.2 µM) | MIC [6]: 3.12 µg/mL (≈ 7.51 µM) | MIC [7]: 6.25 µg/mL (≈ 15 µM) | MIC [8]: 12.5 µg/mL (≈ 30.1 µM)

Cc1ccccc1-c1nnc2n(-c3ccccc3)c(=O)c3ccccc3n12
MIC [1]: 25 µg/mL (≈ 70.9 µM) | MIC [2]: > 50 µg/mL | MIC [3]: 25 µg/mL (≈ 70.9 µM) | MIC [4]: 50 µg/mL (≈ 142 µM) | MIC [5]: > 50 µg/mL | MIC [6]: > 50 µg/mL | MIC [7]: 50 µg/mL (≈ 142 µM) | MIC [8]: 25 µg/mL (≈ 70.9 µM)
